Assay results as given in ChEMBL document CHEMBL1142448, “Design and synthesis of 6-phenylnicotinamide derivatives as antagonists of TRPV1” (Bioorg Med Chem Lett, 2008).
Each block holds one compound with its values, some of them ahead of it.

Assays:
[1] = Intrinsic clearance in guinea pig liver microsomes; assay type: ADME, Cavia porcellus, Microsome
[2] = test system: Liver microsomes; experiment: Intrinsic clearance in human liver microsomes; assay type: ADME, Microsome
[3] = test system: Cavia porcellus; experiment: Antihyperalgesic activity in guinea pig assessed as reversal of FCA-induced inflammatory pain at 30 mg/kg, sc; assay type: functional; conditions: route subcutaneous
[4] = Half life in rat at 1 mg/kg, iv; assay type: ADME, organism-based; design: dose 1 mg/kg, route intravenous; conditions: in vivo
[5] = Blood clearance in rat at 1 mg/kg, iv; assay type: ADME, organism-based; design: dose 1 mg/kg, route intravenous; conditions: whole blood
[6] = target: T1, Transient receptor potential cation channel subfamily V member 1 (Homo sapiens, UniProt Q8NER1); experiment: Antagonist activity at human TRPV1 expressed in human 1321N1 cells assessed as inhibition of capsaicin-induced calcium influx by FLIPR assay; assay type: functional, cell-based
[7] = target: Cytochrome P450 3A4 (Homo sapiens, UniProt P08684); experiment: Inhibition of CYP3A4; assay type: ADME
[8] = test system: Cavia porcellus; experiment: Antihyperalgesic activity in guinea pig assessed as reversal of FCA-induced inflammatory pain at 5 mg/kg, ip; assay type: functional; conditions: route intraperitoneal
[9] = target: T1, Transient receptor potential cation channel subfamily V member 1; conditions: HEK293
Description: Antagonist activity at human TRPV1 expressed in HEK293 cells assessed as inhibition of capsaicin-induced calcium influx by FLIPR assay

[10] = target: T1, Transient receptor potential cation channel subfamily V member 1; experiment: Antagonist activity at human TRPV1 expressed in HEK293 cells assessed as inhibition of capsaicin-induced calcium influx by whole cell patch clamp assay; assay type: functional, cell-based
[11] = target: Transient receptor potential cation channel subfamily V member 1 (Rattus norvegicus) (UniProt O35433); conditions: HEK293
Description: Antagonist activity at rat TRPV1 expressed in HEK293 cells assessed as inhibition of capsaicin-induced calcium influx by FLIPR assay

[12] = target: Transient receptor potential cation channel subfamily V member 1 (Cavia porcellus) (UniProt Q6R5A3); conditions: HEK293
Description: Antagonist activity at guinea pig TRPV1 expressed in HEK293 cells assessed as inhibition of capsaicin-induced calcium influx by FLIPR assay

[13] = target: T1, Transient receptor potential cation channel subfamily V member 1; experiment: Inhibition of human TRPV1 expressed in HEK293 cells assessed as reversible inhibition of heat-activated current at 1 uM by whole cell patch clamp assay relative to control; assay type: cell-based
[14] = target: Transient receptor potential cation channel subfamily V member 1 (Cavia porcellus, UniProt Q6R5A3); experiment: Antagonist activity at guinea pig TRPV1 expressed in HEK293 cells assessed as inhibition of pH 5.3 acid-induced calcium influx by FLIPR assay; assay type: functional, cell-based
[15] = target: T1, Transient receptor potential cation channel subfamily V member 1; experiment: Antagonist activity at human TRPV1 expressed in HEK293 cells assessed as inhibition of pH 5.3 acid-induced calcium influx at 100 nM by whole cell patch clamp assay; assay type: functional, cell-based
[16] = target: T1, Transient receptor potential cation channel subfamily V member 1; experiment: Antagonist activity at human TRPV1 expressed in HEK293 cells assessed as inhibition of capsaicin-induced calcium influx at 1 uM by whole cell patch clamp assay; assay type: functional, cell-based
[17] = Oral bioavailability in guinea pig; assay type: ADME, organism-based, Cavia porcellus; conditions: in vivo
[18] = species on record: Cavia porcellus; experiment: Antihyperalgesic activity against FCA-induced inflammatory pain in guinea pig assessed as paw withdrawal after 1 hr; assay type: functional
[19] = target: Transient receptor potential cation channel subfamily V member 1 (Rattus norvegicus, UniProt O35433); experiment: Antagonist activity at rat TRPV1 expressed in HEK293 cells assessed as inhibition of pH 5.3 acid-induced calcium influx by FLIPR assay; assay type: functional, cell-based
[20] = target: T1, Transient receptor potential cation channel subfamily V member 1; experiment: Antagonist activity at human TRPV1 expressed in HEK293 cells assessed as inhibition of pH 5.3 acid-induced calcium influx by whole cell patch clamp assay; assay type: functional, cell-based
[21] = target: T1, Transient receptor potential cation channel subfamily V member 1; experiment: Antagonist activity at human TRPV1 expressed in HEK293 cells assessed as inhibition of pH 5.3 acid-induced calcium influx by FLIPR assay; assay type: functional, cell-based

T1 sequence (Q8NER1 whole entry): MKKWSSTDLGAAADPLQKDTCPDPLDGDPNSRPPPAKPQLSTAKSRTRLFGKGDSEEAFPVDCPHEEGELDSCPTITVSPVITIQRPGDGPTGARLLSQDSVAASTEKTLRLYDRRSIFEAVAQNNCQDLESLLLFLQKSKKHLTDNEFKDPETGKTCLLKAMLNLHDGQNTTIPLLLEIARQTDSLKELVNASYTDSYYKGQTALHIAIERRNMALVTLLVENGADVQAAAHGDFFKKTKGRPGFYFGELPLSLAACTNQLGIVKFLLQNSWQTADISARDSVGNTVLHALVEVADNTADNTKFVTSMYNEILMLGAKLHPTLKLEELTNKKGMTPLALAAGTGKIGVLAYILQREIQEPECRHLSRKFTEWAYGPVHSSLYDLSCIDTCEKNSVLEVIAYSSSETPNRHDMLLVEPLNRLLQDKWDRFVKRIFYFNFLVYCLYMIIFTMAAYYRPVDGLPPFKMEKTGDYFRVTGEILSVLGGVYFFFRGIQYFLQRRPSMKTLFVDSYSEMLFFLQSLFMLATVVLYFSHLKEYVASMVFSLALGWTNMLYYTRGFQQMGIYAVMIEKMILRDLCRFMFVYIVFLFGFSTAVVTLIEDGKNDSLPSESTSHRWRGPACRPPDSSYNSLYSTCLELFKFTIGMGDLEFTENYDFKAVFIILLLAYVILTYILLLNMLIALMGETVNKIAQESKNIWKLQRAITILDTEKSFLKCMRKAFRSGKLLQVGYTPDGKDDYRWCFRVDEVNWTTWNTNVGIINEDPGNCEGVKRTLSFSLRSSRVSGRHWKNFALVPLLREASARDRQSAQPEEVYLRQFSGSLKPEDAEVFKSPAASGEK
Transient receptor potential cation channel subfamily V member 1 (Cavia porcellus, UniProt Q6R5A3), sequence (Q6R5A3 whole entry): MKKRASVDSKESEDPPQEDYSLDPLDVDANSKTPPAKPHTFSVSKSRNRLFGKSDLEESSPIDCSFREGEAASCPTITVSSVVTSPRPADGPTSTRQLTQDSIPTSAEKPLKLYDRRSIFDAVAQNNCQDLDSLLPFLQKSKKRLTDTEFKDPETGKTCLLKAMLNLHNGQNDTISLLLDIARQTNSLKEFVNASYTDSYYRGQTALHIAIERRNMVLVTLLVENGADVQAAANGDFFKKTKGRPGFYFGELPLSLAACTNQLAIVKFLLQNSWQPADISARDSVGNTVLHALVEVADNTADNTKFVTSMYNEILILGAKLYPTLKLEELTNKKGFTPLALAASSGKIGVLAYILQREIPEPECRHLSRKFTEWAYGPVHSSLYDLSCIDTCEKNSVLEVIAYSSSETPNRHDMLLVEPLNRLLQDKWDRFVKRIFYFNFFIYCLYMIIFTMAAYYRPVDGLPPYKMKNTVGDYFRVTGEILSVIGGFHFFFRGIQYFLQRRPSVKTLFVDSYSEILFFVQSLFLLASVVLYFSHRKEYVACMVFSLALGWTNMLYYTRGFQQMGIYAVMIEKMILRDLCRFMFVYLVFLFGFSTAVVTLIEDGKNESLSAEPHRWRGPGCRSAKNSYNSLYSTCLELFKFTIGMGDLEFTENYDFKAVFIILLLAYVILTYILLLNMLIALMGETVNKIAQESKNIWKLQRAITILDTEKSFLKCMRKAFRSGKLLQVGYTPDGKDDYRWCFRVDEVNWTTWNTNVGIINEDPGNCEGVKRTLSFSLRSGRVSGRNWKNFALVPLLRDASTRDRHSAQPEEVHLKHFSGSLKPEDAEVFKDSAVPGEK
Transient receptor potential cation channel subfamily V member 1 (Cavia porcellus), sequence (Q6R5A3 whole entry): as above
Transient receptor potential cation channel subfamily V member 1 (Rattus norvegicus, UniProt O35433), sequence (O35433 whole entry): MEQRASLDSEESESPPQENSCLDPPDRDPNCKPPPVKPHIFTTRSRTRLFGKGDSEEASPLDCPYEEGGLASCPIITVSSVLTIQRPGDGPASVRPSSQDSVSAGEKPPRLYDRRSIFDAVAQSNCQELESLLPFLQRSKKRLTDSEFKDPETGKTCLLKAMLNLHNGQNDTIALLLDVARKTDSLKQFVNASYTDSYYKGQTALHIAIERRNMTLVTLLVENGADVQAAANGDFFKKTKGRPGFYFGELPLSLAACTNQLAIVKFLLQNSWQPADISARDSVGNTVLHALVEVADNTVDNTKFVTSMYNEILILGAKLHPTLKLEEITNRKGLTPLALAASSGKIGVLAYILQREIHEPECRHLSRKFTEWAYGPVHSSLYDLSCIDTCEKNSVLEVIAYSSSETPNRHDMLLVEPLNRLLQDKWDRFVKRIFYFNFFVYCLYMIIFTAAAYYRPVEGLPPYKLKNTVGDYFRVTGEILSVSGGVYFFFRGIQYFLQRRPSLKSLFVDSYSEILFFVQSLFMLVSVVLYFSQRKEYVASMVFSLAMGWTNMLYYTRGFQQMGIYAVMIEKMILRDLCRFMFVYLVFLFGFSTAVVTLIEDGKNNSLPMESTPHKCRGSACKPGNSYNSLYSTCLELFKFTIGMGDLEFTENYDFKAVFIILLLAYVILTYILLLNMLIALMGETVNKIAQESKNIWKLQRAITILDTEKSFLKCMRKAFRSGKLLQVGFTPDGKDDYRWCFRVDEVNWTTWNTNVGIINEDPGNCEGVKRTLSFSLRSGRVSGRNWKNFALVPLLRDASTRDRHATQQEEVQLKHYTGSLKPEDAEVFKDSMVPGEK
Transient receptor potential cation channel subfamily V member 1 (Rattus norvegicus), sequence (O35433 whole entry): as above
Cytochrome P450 3A4, sequence (P08684 whole entry): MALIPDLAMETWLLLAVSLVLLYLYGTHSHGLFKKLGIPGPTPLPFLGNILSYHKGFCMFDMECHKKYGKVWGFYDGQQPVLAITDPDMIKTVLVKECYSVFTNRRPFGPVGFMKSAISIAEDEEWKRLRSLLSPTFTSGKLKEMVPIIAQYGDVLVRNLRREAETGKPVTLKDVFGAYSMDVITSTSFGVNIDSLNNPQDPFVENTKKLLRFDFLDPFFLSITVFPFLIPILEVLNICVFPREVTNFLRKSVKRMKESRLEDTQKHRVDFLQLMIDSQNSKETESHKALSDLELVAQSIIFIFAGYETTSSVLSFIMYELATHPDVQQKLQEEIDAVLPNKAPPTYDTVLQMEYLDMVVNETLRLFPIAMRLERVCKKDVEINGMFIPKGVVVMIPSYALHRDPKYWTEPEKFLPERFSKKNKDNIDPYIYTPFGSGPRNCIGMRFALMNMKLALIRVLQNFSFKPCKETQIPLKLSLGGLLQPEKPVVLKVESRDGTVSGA

CL [1]: 3.9 mL/min/g
CL [2]: 3.1 mL/min/g
half-life [4]: 21.6 min
clearance [5]: 1.98 L/h/kg
SMILES: O=C(Nc1ccc2cccnc2c1)c1ccc(-c2ccccc2)nc1
Activity [3]: 32%

pKb [6]: < 5.8
SMILES: Cc1nc(-c2ccc(F)cc2)ccc1C(=O)Nc1ccc2sc(N(C)C)nc2c1

pKb [6]: < 6.7
SMILES: N#Cc1ccc(C(=O)Nc2ccc3cccnc3c2)cn1

pKb [6]: 7.5
SMILES: Cc1nc(-c2ccc(F)cc2)ccc1C(=O)Nc1ccc2cn[nH]c2c1

pKb [6]: < 6.7
SMILES: Cc1nc(-c2ccc(F)cc2)ccc1C(=O)Nc1ccc2sc(CN(C)C)nc2c1

pKb [6]: 6.7
SMILES: Cc1nc(-c2ccc(F)cc2)ccc1C(=O)Nc1ccc2ncsc2c1

pKb [6]: < 6.7
SMILES: Cc1nc2ccc(NC(=O)c3ccc(-c4ccc(F)cc4)nc3C)cc2o1

CL [1]: 42 mL/min/g
pKb [6]: 8.2
CL [2]: 1.7 mL/min/g
SMILES: O=C(Nc1ccc2cccnc2c1)c1ccc(-c2ccc(F)cc2)nc1

pKb [6]: 7.3
SMILES: O=C(Nc1ccc2cccnc2c1)c1ccc(-c2ccc(C(F)(F)F)cc2)nc1

pKb [6]: 7.5
SMILES: Cc1nc(-c2ccc(F)cc2)ccc1C(=O)Nc1ccc2scnc2c1

pKb [6]: 8.7
SMILES: O=C(Nc1ccc2cccnc2c1)c1ccc(-c2ccccc2F)nc1

pKb [6]: < 6.5
SMILES: Cc1nc(-c2ccc(F)cc2)ccc1C(=O)Nc1ccc2ccn(C)c2c1

pKb [6]: 6
SMILES: Cc1nc2ccc(NC(=O)c3ccc(-c4ccc(F)cc4)nc3C)cc2[nH]1

pKb [6]: 7.2
SMILES: Cc1nc(-c2ccc(F)cc2)ccc1C(=O)Nc1ccc2nc[nH]c2c1

pKb [6]: < 6.6
SMILES: N#Cc1ccc(-c2ccc(C(=O)Nc3ccc4cccnc4c3)cn2)cc1

pKb [6]: 7.8
SMILES: O=C(Nc1ccc2cccnc2c1)c1ccc(-c2ccc(Cl)cc2)nc1

pKb [6]: 8.6
SMILES: O=C(Nc1ccc2cccnc2c1)c1ccc(-c2cccc(F)c2)nc1

pKb [6]: 6.7
SMILES: Cc1cc(-c2ccccc2)ncc1C(=O)Nc1ccc2cccnc2c1

pKb [6]: 6.9
SMILES: Cc1nc(-c2ccc(F)cc2)ccc1C(=O)Nc1ccc2c(C)n[nH]c2c1

pKb [6]: 8.5
IC50 [7]: < 10 µM
SMILES: Cc1nc(-c2ccc(F)cc2)ccc1C(=O)Nc1ccc2cccnc2c1
Activity [8]: 42%

pKb [6]: 9
SMILES: Cc1nc(-c2ccccc2)ccc1C(=O)Nc1ccc2cccnc2c1

pKb [6]: 6.7
SMILES: Cc1nc(-c2ccc(F)cc2)ccc1C(=O)Nc1ccc2ncn(C)c2c1

pKb [6]: < 6.7
SMILES: O=C(Nc1ccc2cccnc2c1)c1ccc(Cl)nc1

pKb [9]: 7.2
IC50 [10]: 0.049 µM
CL [1]: 2.7 mL/min/g
pKb [6]: 7.4
pKb [11]: 7
CL [2]: 2.2 mL/min/g
pKb [12]: 7.4
inhibition [13]: 87%
IC50 [14]: 0.0631 µM
inhibition [15]: 96%
inhibition [16]: 100%
bioavailability [17]: 24%
IC50 [19]: 0.1 µM
IC50 [20]: 0.009 µM
IC50 [21]: 0.0398 µM
SMILES: Cc1nc2cc(NC(=O)c3ccc(-c4ccc(F)cc4)nc3C)ccc2s1
Activity [18]: 68%
ED50 ([18]; Cavia porcellus, 1 h): 0.53 mg/kg
Activity [8]: 48%
